Assay results as given in ChEMBL document CHEMBL1201862, “PubChem BioAssay data set” (2004).
Activity calls are given as the source filed them.

Columns and labels:
HEK293 [1] = assay: HEK cell cytotoxicity by LDH release, dose response, cytotoxicity control for IDE activator project, fluorescence, HEK cells (AID 588440); type: functional, cell-based; conditions: Homo sapiens;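 note: cytotoxicity by LDH release measuring loss of membrane integrity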
[2] = molecular target: T1, Ubiquitin-conjugating enzyme E2 N (Homo sapiens, UniProt P61088); type: functional
T1 sequence (P61088 whole entry): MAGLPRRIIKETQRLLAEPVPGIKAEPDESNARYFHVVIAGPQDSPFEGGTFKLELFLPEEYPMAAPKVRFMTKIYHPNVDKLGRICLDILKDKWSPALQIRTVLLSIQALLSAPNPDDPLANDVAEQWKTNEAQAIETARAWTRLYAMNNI

[3] = Luminescence Cell-Based Dose Retest to Confirm Inhibitors of Cancer Stem Cells. [Related pubchem assays (depositor defined):AID2717, AID2721]; type: functional; conditions: Homo sapiens
Insulin-degrading enzyme [4] = molecular target: T2, Insulin-degrading enzyme (Homo sapiens, UniProt P14735); assay: activators of endogenous IDE in HEK cells, dose response, cell-based, fluorescence polarization (AID 588439); type: functional
T2 sequence (P14735 whole entry): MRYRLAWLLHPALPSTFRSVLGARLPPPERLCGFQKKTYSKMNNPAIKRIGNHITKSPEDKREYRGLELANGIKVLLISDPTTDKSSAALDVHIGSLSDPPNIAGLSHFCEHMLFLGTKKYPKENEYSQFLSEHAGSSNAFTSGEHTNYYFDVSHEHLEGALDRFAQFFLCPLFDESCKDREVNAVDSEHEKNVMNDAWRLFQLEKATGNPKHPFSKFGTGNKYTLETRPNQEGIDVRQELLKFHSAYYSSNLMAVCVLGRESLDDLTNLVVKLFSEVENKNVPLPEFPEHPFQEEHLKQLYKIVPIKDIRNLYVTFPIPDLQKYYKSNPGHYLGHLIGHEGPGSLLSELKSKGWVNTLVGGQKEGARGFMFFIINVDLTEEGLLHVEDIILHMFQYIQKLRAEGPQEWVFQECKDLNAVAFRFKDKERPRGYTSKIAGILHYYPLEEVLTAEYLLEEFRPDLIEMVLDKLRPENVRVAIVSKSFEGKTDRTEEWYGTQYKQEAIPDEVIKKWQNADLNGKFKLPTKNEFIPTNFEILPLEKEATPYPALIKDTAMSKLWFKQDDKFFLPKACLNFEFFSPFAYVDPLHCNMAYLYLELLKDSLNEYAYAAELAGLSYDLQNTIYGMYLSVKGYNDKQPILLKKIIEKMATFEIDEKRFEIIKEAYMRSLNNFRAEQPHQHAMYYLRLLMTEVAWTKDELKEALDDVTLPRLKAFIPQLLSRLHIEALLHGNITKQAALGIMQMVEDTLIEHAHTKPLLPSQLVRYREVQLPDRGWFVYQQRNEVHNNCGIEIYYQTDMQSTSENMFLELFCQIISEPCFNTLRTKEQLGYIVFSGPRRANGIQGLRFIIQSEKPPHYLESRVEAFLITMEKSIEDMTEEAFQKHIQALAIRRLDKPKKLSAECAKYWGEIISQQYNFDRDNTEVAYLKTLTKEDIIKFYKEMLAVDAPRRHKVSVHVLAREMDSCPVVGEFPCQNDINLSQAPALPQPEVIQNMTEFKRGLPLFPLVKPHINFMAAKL

Bcl-2-related protein A1 = molecular target: T3, Bcl-2-related protein A1 (Mus musculus, UniProt Q07440); type: functional;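 note: confirmatory dose–response counterscreen on Bfl-1, used to check hits from a UBC13 polyubiquitin inhibitor campaign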
T3 sequence (Q07440 whole entry): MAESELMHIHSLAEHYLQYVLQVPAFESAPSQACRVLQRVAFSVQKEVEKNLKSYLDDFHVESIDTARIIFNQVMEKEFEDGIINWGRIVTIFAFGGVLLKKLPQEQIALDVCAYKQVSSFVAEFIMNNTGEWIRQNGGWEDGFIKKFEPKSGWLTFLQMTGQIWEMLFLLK

Insulin-degrading enzyme [5] = molecular target: T2, Insulin-degrading enzyme; assay: activators of recombinant IDE enzyme, dose response, counter-screen for IDE activator project, biochemical, fluorescence polarization (AID 588681)
[6] = molecular target: T1, Ubiquitin-conjugating enzyme E2 N; type: functional; remark: listed apart in the source
HEK293 [7] = assay: optical interference in Abeta FP readout, dose response, artefact control for IDE activator project, biochemical, fluorescence polarization (AID 588442); type: functional, cell-based; conditions: Homo sapiens
[8] = inhibitors of firefly luciferase expression or activity, dose response, H4 neuroglioma cells, luminescence (AID 1990); type: functional, cell-based
BJ [9] = assay: cytotoxicity toward BJ-TERT fibroblasts, dose response, cell-based, RAS-independent, luminescence (AID 1933); type: functional; conditions: Homo sapiens
[10] = NIH-3T3 fibroblast cytotoxicity, dose response, cytotoxicity control, cell-based, fluorescence, Alamar Blue, secondary assay (AID 2327); type: functional;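 note: NIH-3T3 mouse fibroblasts cultured with fluconazole at 8 µg/mL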
[11] = Luminescence Cell-Based Dose Response HTS to Identify Inhibitors of 5'UTR Stem-Loop Driven Prion Protein mRNA Translation in H4 Neuroglioblastoma Cells. [Related pubchem assays: 1827 (Project Summary), 1813 (Primary HTS)]; type: functional
[12] = molecular target: T4, Long-chain-fatty-acid--AMP ligase FadD28 (Mycobacterium tuberculosis, UniProt P9WQ59); assay: Fluorescence polarization aasay to screen for inhibitors that compete for the binding of FadD28 to a bisubstrate Measured in Biochemical System Using Plate Reader - 2147-01_Inhibitor_Dose_CherryPick_Activity.; type: functional, Mycobacterium tuberculosis H37Rv
T4 sequence (P9WQ59 whole entry): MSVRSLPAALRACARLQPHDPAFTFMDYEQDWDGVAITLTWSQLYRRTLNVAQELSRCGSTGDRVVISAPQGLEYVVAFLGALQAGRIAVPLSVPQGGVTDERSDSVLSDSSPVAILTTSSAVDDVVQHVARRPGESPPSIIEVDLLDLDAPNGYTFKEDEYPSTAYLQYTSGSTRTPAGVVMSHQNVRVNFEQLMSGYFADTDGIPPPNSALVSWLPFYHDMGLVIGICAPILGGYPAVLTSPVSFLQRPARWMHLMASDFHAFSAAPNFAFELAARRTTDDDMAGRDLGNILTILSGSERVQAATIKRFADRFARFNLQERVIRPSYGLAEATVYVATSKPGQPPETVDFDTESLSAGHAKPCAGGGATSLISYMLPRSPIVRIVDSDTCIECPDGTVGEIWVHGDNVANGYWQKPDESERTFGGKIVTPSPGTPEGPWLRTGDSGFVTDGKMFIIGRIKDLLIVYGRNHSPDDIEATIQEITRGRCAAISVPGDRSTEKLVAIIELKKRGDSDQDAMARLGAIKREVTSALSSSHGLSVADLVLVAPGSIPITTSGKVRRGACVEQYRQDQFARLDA

[13] = inhibitors of SNCA 5'UTR-driven reporter translation, confirmation, H4 neuroglioma cells, luminescence (AID 1988); type: functional, cell-based
BJ [14] = assay: cytotoxicity toward BJ-TERT-LT-ST fibroblasts, dose response, cell-based, RAS-independent, luminescence (AID 1935); type: functional; conditions: Homo sapiens;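 note: BJ fibroblasts immortalized with TERT plus LT and ST oncogenes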
BJ [15] = assay: cells; type: functional, cell-based; conditions: Homo sapiens
BJ [16] = assay: cytotoxicity toward Ras-transformed BJeLR fibroblasts, dose response, cell-based, alamar blue fluorescence, cherrypicked samples (AID 2631); type: functional; conditions: Homo sapiens;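 note: confirmatory dose-response assay in RAS-dependent BJ fibroblasts engineered with TERT, LT and ST, with cytotoxicity read by fluorescence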
cells [17] = type: functional, cell-based
cells [18] = type: functional, cell-based; remark: listed apart in the source
INS1 = assay: beta cell apoptosis inhibitors, cytokine rescue, dose response, luminescence, retest (AID 449756); type: functional, cell-based; conditions: Rattus norvegicus;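 note: cell death triggered by IL-1 beta plus TNF-alpha plus IFN-gamma mixture; protective hits raise ATP signal compared with cytokine alone wells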
[19] = cytotoxicity toward DRD oncogenic fibroblasts, dose response, cell-based, non-viral oncogenic, luminescence (AID 1934); type: functional; conditions: Homo sapiens
HEK293 [20] = assay: inhibitors of LMP1-driven NF-kB reporter, dose response, cell-based, HEK293, luciferase, cherry-pick (AID 588343); type: functional; conditions: Homo sapiens
[21] = cytotoxicity in MIN6 insulinoma cells, dose response, cytotoxicity control, cell-based, mouse insulinoma (AID 2122); type: functional;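 note: confirmatory high-throughput counterscreen run to flag cytotoxic compounds; mouse MIN-6 beta cells carrying an insulin promoter eGFP reporter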
[22] = insulin promoter down-regulators in MIN6 cells, imaging, high-content screening, mouse beta cells (AID 1628); type: functional

FC(F)(F)c1cc(CCN2CCNC[C@H]2Cc2cccc3ccccc23)cc(C(F)(F)F)c1
inactive: IC50 (HEK293 [1]) 10.1 µM | EC50 (Insulin-degrading enzyme [4]) 11.1 µM | IC50 (Bcl-2-related protein A1) > 20 µM | EC50 (Insulin-degrading enzyme [5]) > 54.7 µM | EC50 (HEK293 [7]) > 55.9 µM
active: IC50 [2] 9.82 µM | AC50 [3] 3.37 µM | IC50 [6] 11.7 µM

CCN(CC)c1ccc(/C=N/NC(=O)c2ccc3[nH]cnc3c2)c(O)c1
inconclusive: EC50 (BJ [15]) 7.44 µM
> 350 µM (not active): EC50 (cells [17])
active: EC50 [8] 3.35 µM | EC50 (BJ [9]) 4.19 µM | EC50 [10] 6.84 µM | EC50 [11] 4.29 µM | AC50 [12] 13.1 µM | EC50 [13] 7.51 µM | EC50 (BJ [14]) 9.27 µM | EC50 (BJ [16]) 0.944 µM | EC50 (cells [18]) 8.39 µM | AC50 (INS1) 0.827 µM | EC50 [19] 4.54 µM | AC50 (HEK293 [20]) 7.07 µM

CC(Oc1ccc(Cl)cc1Cl)c1nc(-c2ccc(NC(=O)c3cccnc3)cc2)no1 (stereo not given)
active: IC50 [21] 0.928 µM | IC50 [22] 0.88 µM | EC50 (BJ [15]) 3.32 µM | AC50 (INS1) 0.61 µM | EC50 [19] 25.4 µM
inactive: EC50 (BJ [16]) > 66.7 µM
> 150 µM (not active): EC50 (BJ [9]) | EC50 (BJ [14])
